# From ChEMBL document CHEMBL4152252, “Fluorine walk: The impact of fluorine in quinolone amides on their activity against African sleeping sickness” (Eur J Med Chem, 2018)
# How the values were obtained:
# [1] = test system: Trypanosoma brucei brucei; assay: Antitrypanosomal activity against trypomastigote forms of Trypanosoma brucei brucei TC 221 assessed as parasite growth inhibition after 48 hrs by Alamar blue assay; format: functional, organism-based; settings: TC 221, 48 h
# [2] = test system: Trypanosoma brucei brucei; assay: Antitrypanosomal activity against trypomastigote forms of Trypanosoma brucei brucei TC 221 assessed as parasite growth inhibition after 72 hrs by Alamar blue assay; format: functional, organism-based; settings: TC 221, 72 h
# [3] = Cytotoxicity against mouse J774.1 cells after 24 hrs by Alamar blue assay; format: cell-based
# [4] = Selectivity index, ratio of CC50 for mouse J774.1 cells to IC50 for trypomastigote forms of Trypanosoma brucei brucei TC 221 assessed as parasite growth inhibition after 48 hrs; format: toxicity; settings: read-out: Ratio CC50/IC50
# [5] = Octanol/water partition co-efficient, log P of the compound by HPLC based method; format: physicochemical
# [6] = Thermodynamic equilibrium solubility of the compound in pH 7.4 phosphate buffered saline after 24 hrs by shake flask method; format: physicochemical; settings: read-out: Therm_solubility
# [7] = Half life in rat liver cytosol; format: ADME, subcellular
# [8] = Stability in rat liver cytosol assessed as compound turnover per mg protein; format: ADME, subcellular
# [9] = Drug metabolism in rat liver microsomes assessed as CYP450-mediated oxidative N-dealkylation by measuring 3-(benzylcarbamoyl)-1-ethyl-5-fluoro-7-morpholino-4-oxo-1,4-dihydroquinolinium formation at 100 uM using NADPH/H+ as co-factor after 30 to 90 mins by LC/MSD iom trap method; format: ADME
# [10] = (§1) Drug metabolism in rat liver microsomes assessed as CYP450-mediated (w-1)-oxidation/alipathic hydroxylation by measuring 3-(benzylcarbamoyl)-5-fluoro-1-(3-hydroxybutyl)-7-morpholino-4-oxo-1,4-dihydroquinolinium formation at 100 uM using NADPH/H+ as co-factor after 30 to 90 mins by LC/MSD iom trap method; format: ADME
# [11] = Drug metabolism in rat liver microsomes assessed as CYP450-mediated amide hydrolysis oxidative N-dealkylation by measuring 3-carbamoyl-5-fluoro-1-methyl-7-morpholino-4-oxo-1,4-dihydroquinolinium formation at 100 uM using NADPH/H+ as co-factor after 30 to 90 mins by LC/MSD iom trap method; format: ADME
# [12] = Drug metabolism in rat liver microsomes assessed as CYP450-mediated amide hydrolysis amidase by measuring 1-butyl-3-carbamoyl-5-fluoro-7-morpholino-4-oxo-1,4-dihydroquinolinium formation at 100 uM using NADPH/H+ as co-factor after 30 to 90 mins by LC/MSD iom trap method; format: ADME
# [13] = Drug metabolism in rat liver cytosol assessed as CYP450-mediated oxidative N-dealkylation by measuring 3-(benzylcarbamoyl)-1-ethyl-5-fluoro-7-morpholino-4-oxo-1,4-dihydroquinolinium formation at 100 uM using NADPH/H+ as co-factor after 30 to 90 mins by LC/MSD iom trap method; format: ADME, subcellular
# [14] = as §1, with “cytosol” for “microsomes”; format: ADME, subcellular
# [15] = Drug metabolism in rat liver cytosol assessed as CYP450-mediated amide hydrolysis oxidative N-dealkylation by measuring 3-carbamoyl-5-fluoro-1-methyl-7-morpholino-4-oxo-1,4-dihydroquinolinium formation at 100 uM using NADPH/H+ as co-factor after 30 to 90 mins by LC/MSD iom trap method; format: ADME, subcellular
# [16] = Drug metabolism in rat liver cytosol assessed as CYP450-mediated amide hydrolysis amidase by measuring 1-butyl-3-carbamoyl-5-fluoro-7-morpholino-4-oxo-1,4-dihydroquinolinium formation at 100 uM using NADPH/H+ as co-factor after 30 to 90 mins by LC/MSD iom trap method; format: ADME, subcellular
# [17] = Drug level in rat liver microsomes assessed as CYP450-mediated metabolite formation treated with 1-Butyl-5-fluoro-N-(4-fluorobenzyl)-7-morpholino-4-oxo-1,4-dihydroquinoline-3-carboxamide at 100 uM using NADPH/H+ as co-factor after 30 to 90 mins by LC/MSD iom trap method; format: ADME
# [18] = Drug level in rat liver cytosol assessed as CYP450-mediated metabolite formation treated with 1-Butyl-5-fluoro-N-(4-fluorobenzyl)-7-morpholino-4-oxo-1,4-dihydroquinoline-3-carboxamide at 100 uM using NADPH/H+ as co-factor after 30 to 90 mins by LC/MSD iom trap method; format: ADME, subcellular
# [19] = Drug level in rat liver microsomes assessed as CYP450-mediated metabolite formation treated with 1-Butyl-6-fluoro-N-(4-fluorobenzyl)-7-morpholino-4-oxo-1,4-dihydroquinoline-3-carboxamide at 100 uM using NADPH/H+ as co-factor after 30 to 90 mins by LC/MSD iom trap method; format: ADME
# [20] = Drug level in rat liver cytosol assessed as CYP450-mediated metabolite formation treated with 1-Butyl-6-fluoro-N-(4-fluorobenzyl)-7-morpholino-4-oxo-1,4-dihydroquinoline-3-carboxamide at 100 uM using NADPH/H+ as co-factor after 30 to 90 mins by LC/MSD iom trap method; format: ADME, subcellular
# [21] = Drug uptake in brain of B6/J mouse at 19.3 +/- 2.3 MBq, iv after 60 mins by autoradiography; format: ADME, organism-based; settings: in vivo, 1 h
# [22] = Drug level in rat liver microsomes assessed as CYP450-mediated metabolite formation treated with N-benzyl-1-butyl-5-fluoro-7-morpholino-4-oxo-1,4-dihydroquinoline-3-carboxamide at 100 uM using NADPH/H+ as co-factor after 30 to 90 mins by LC/MSD iom trap method; format: ADME
# [23] = Drug level in rat liver cytosol assessed as CYP450-mediated metabolite formation treated with N-benzyl-1-butyl-5-fluoro-7-morpholino-4-oxo-1,4-dihydroquinoline-3-carboxamide at 100 uM using NADPH/H+ as co-factor after 30 to 90 mins by LC/MSD iom trap method; format: ADME, subcellular
# [24] = Solubility of the compound in RPMI-1640 medium; format: physicochemical
structure (smiles),measurement,setting,value
CCCCn1cc(C(=O)NCc2ccccc2F)c(=O)c2cc(F)c(N3CCOCC3)cc21,IC50,[1],410 nM
same,IC50,[2],460 nM
same,CC50 at 24 h,[3],37000 nM
same,selectivity ratio at 48 h,[4],90
O=C(NCc1ccccc1)c1cn(CCCO)c2cc(N3CCOCC3)c(F)cc2c1=O,IC50,[1],270 nM
same,IC50,[2],550 nM
same,CC50 at 24 h,[3],43100 nM
same,selectivity ratio at 48 h,[4],160
same,logP,[5],3.04
same,solubility thermodynamic at 24 h,[6],18.7 µg/mL
O=C(NCc1ccccc1)c1cn(CCCF)c2cc(N3CCOCC3)c(F)cc2c1=O,IC50,[1],120 nM
same,IC50,[2],170 nM
same,CC50 at 24 h,[3],42400 nM
same,selectivity ratio at 48 h,[4],353
same,logP,[5],3.34
same,solubility thermodynamic at 24 h,[6],1.41 µg/mL
CCCCn1cc(C(=O)NCc2ccccc2)c(=O)c2c(F)cc(N3CCOCC3)cc21,IC50,[1],50 nM
same,IC50,[2],80 nM
same,CC50 at 24 h,[3],> 100000 nM
same,selectivity ratio at 48 h,[4],> 2000
same,half-life,[7],7.2 h
same,Drug metabolism,[8],4.3 pmol/min/mg protein
same,logP,[5],3.36
same,solubility thermodynamic at 24 h,[6],0.12 µg/mL
same,Drug metabolism,[9],Metabolite_Detected
same,Drug metabolism,[10],Metabolite_Detected
same,Drug metabolism,[11],Metabolite_Detected
same,Drug metabolism,[12],Metabolite_Detected
same,Drug metabolism,[13],Metabolite_Detected
same,Drug metabolism,[14],Metabolite_Detected
same,Drug metabolism,[15],Metabolite_Detected
same,Drug metabolism,[16],Metabolite_Detected
CCCCn1cc(C(=O)NCc2ccccc2)c(=O)c2ccc(N3CCOCC3)cc21,IC50,[1],230 nM
same,IC50,[2],200 nM
same,CC50 at 24 h,[3],> 100000 nM
same,selectivity ratio at 48 h,[4],> 435
same,logP,[5],3.51
same,solubility thermodynamic at 24 h,[6],1.36 µg/mL
Cn1cc(C(=O)NCc2ccc(F)cc2)c(=O)c2c(F)cc(N3CCOCC3)cc21,Drug metabolism,[17],Metabolite_Detected
same,Drug metabolism,[18],Metabolite_Detected
CCCCn1cc(C(=O)NCc2ccccc2)c(=O)c2cc(F)c(N3CCOCC3)cc21,half-life,[7],5.8 h
same,Drug metabolism,[8],47.11 pmol/min/mg protein
same,solubility thermodynamic at 24 h,[6],0.005 µg/mL
CCCCn1cc(C(=O)NCc2ccc(F)cc2F)c(=O)c2cc(F)c(N3CCOCC3)cc21,IC50,[1],30 nM
same,IC50,[2],30 nM
same,CC50 at 24 h,[3],59600 nM
same,selectivity ratio at 48 h,[4],1990
same,Drug metabolism,[8],5.94 pmol/min/mg protein
CCCCn1cc(C(=O)O)c(=O)c2cc(F)c(N3CCOCC3)cc21,Drug metabolism,[19],Metabolite_Detected
same,Drug metabolism,[20],Metabolite_Detected
CC(O)CCn1cc(C(=O)NCc2ccc(F)cc2)c(=O)c2cc(F)c(N3CCOCC3)cc21 (stereo unspecified),Drug metabolism,[19],Metabolite_Detected
same,Drug metabolism,[20],Metabolite_Detected
CCCCn1cc(C(=O)NCc2ccccc2)c(=O)c2cc(C(F)(F)F)c(N3CCOCC3)cc21,IC50,[1],540 nM
same,IC50,[2],590 nM
same,CC50 at 24 h,[3],78600 nM
same,selectivity ratio at 48 h,[4],146
same,logP,[5],4.18
O=C(NCc1ccc(F)cc1)c1c[nH]c2cc(N3CCOCC3)c(F)cc2c1=O,Drug metabolism,[19],Metabolite_Detected
same,Drug metabolism,[20],Metabolite_Detected
CCCCn1cc(C(=O)O)c(=O)c2c(F)cc(N3CCOCC3)cc21,Drug metabolism,[17],Metabolite_Detected
same,Drug metabolism,[18],Metabolite_Detected
O=C(NCc1ccccc1)c1cn(CCC[18F])c2cc(N3CCOCC3)c(F)cc2c1=O,Drug uptake,[21],Active
CCCCn1cc(C(=O)NCc2ccccc2)c(=O)c2c(OC)cc(N3CCOCC3)cc21,IC50,[1],760 nM
same,IC50,[2],650 nM
same,CC50 at 24 h,[3],51800 nM
same,selectivity ratio at 48 h,[4],68
CCCCn1cc(C(=O)NCc2ccccc2)c(=O)c2cc(OC)c(N3CCOCC3)cc21,IC50,[1],310 nM
same,IC50,[2],240 nM
same,CC50 at 24 h,[3],42000 nM
same,selectivity ratio at 48 h,[4],135
same,logP,[5],3.73
same,solubility thermodynamic at 24 h,[6],2.73 µg/mL
CCn1cc(C(=O)NCc2ccccc2)c(=O)c2c(F)cc(N3CCOCC3)cc21,Drug metabolism,[22],Metabolite_Detected
same,Drug metabolism,[23],Metabolite_Detected
Cn1cc(C(N)=O)c(=O)c2c(F)cc(N3CCOCC3)cc21,Drug metabolism,[22],Metabolite_Detected
same,Drug metabolism,[23],Metabolite_Detected
O=C(NCc1ccc(F)cc1)c1c[nH]c2cc(N3CCOCC3)cc(F)c2c1=O,Drug metabolism,[17],Metabolite_Detected
same,Drug metabolism,[18],Metabolite_Detected
CCCCn1cc(C(=O)NCc2ccccc2)c(=O)c2c(F)c(F)c(N3CCOCC3)cc21,IC50,[1],40 nM
same,IC50,[2],30 nM
same,CC50 at 24 h,[3],> 25000 nM
same,selectivity ratio at 48 h,[4],> 625
same,logP,[5],3.97
same,solubility,[24],Insoluble
CCn1cc(C(=O)NCc2ccc(F)cc2)c(=O)c2c(F)cc(N3CCOCC3)cc21,Drug metabolism,[17],Metabolite_Detected
same,Drug metabolism,[18],Metabolite_Detected
CCCCn1cc(C(=O)NCc2ccccc2)c(=O)c2ccc(N3CCOCC3)c(F)c21,IC50,[1],790 nM
same,IC50,[2],860 nM
same,CC50 at 24 h,[3],> 25000 nM
same,selectivity ratio at 48 h,[4],> 32
same,logP,[5],4.09
same,solubility thermodynamic at 24 h,[6],0.23 µg/mL
same,solubility,[24],Insoluble
CC(O)CCn1cc(C(=O)NCc2ccccc2)c(=O)c2c(F)cc(N3CCOCC3)cc21 (stereo unspecified),Drug metabolism,[22],Metabolite_Detected
same,Drug metabolism,[23],Metabolite_Detected
CCCCn1cc(C(=O)NCc2ccccc2)c(=O)c2c(N(C)C)cc(N3CCOCC3)cc21,IC50,[1],1850 nM
same,IC50,[2],4800 nM
same,CC50 at 24 h,[3],44000 nM
same,selectivity ratio at 48 h,[4],24
Cn1cc(C(=O)NCc2ccc(F)cc2)c(=O)c2cc(F)c(N3CCOCC3)cc21,Drug metabolism,[19],Metabolite_Detected
same,Drug metabolism,[20],Metabolite_Detected
O=C(NCc1ccccc1)c1cn(CCCOCc2ccccc2)c2cc(N3CCOCC3)c(F)cc2c1=O,CC50 at 24 h,[3],> 100000 nM
same,logP,[5],3.9
CCCCn1cc(C(N)=O)c(=O)c2c(F)cc(N3CCOCC3)cc21,Drug metabolism,[22],Metabolite_Detected
same,Drug metabolism,[23],Metabolite_Detected
CCCCn1cc(C(=O)NCc2ccccc2)c(=O)c2cc(F)c(N3CCOCC3)c(F)c21,IC50,[1],60 nM
same,IC50,[2],200 nM
same,CC50 at 24 h,[3],> 20000 nM
same,selectivity ratio at 48 h,[4],> 333
same,logP,[5],4.57
same,solubility,[24],Insoluble
